Assay results taken from PubChem BioAssay AID830 (PCMD, 2007).
Records with an inconclusive call do not appear.

Target: Cathepsin B (Homo sapiens) (UniProt P07858)
Experiment: potency determination for CTSB inhibitors, concentration-dependent titration, enzymatic biochemical, actives identified in pooled-sample high-throughput screen (AID 830)
Conditions: purified cathepsin B enzyme activity, signal read-out

| Structure (SMILES) | IC50 [nM] |
| --- | --- |
| Nc1cc(OC(=O)c2ccco2)nn1S(=O)(=O)c1ccc(F)cc1 | 1260 |
| Nc1cc(OC(=O)c2cccs2)nn1S(=O)(=O)c1ccccc1 | 247 |
| Cc1ccc(S(=O)(=O)n2nc(OC(=O)c3cccs3)cc2N)cc1 | 1990 |
| O=S(=O)(/N=S1/CC=CCN1S(=O)(=O)c1ccccc1)c1ccccc1 (stereo unspecified) | 9390 |
| Nc1nc2n(n1)C1(CCCCC1)C1=C(CCCC1)N2 | 12900 |
| Cc1ccc(S(=O)(=O)n2nc(OC(=O)c3ccco3)cc2N)cc1 | 1750 |
